Organism: Rattus norvegicus
Test: Open TG-GATES - Regimen: Daily Repeat
Format: toxicity, organism-based, Sprague-Dawley
Parameters: regimen Daily Repeat, gender Male, age 6 weeks
Conditions: in vivo, po, 5 mg/kg, route gavage, dose level Low; for APTT / Bas / Eos / Fbg / Hb / Ht / Lym / MCH / MCHC / MCV / Mono / Neu / PT / Plat / RBC / Ret / WBC: tissue Blood; for KIDNEY_L / KIDNEY_R / KIDNEY_TOTAL: tissue Kidney; for LIVER: tissue Liver; for A/G / ALP / ALT / AST / BUN / CRE / Ca / Cl / DBIL / GLC / IP / K / LDH / Na / PL / RALB / TBIL / TC / TG / TP / gamma-GTP: tissue Plasma

CC1=C(CC(=O)O)c2cc(F)ccc2/C1=C\c1ccc([S+](C)[O-])cc1 (configuration not stated) showed a TERMINAL_BW (72 h, time 3 day) of 233.7 g, an APTT (72 h, time 3 day) of 15.8 s and a Bas (72 h, time 3 day) of 0%. For the same molecule, the Eos (72 h, time 3 day) was 1%, the Fbg (72 h, time 3 day) was 306.2 mg/dL and the Hb (72 h, time 3 day) was 14.4 g/dL. It also gave a Ht (72 h, time 3 day) of 42.7%, a Lym (72 h, time 3 day) of 72.4% and an MCH (72 h, time 3 day) of 21.2 pg. For the same molecule, the MCHC (72 h, time 3 day) was 33.8%, the MCV (72 h, time 3 day) was 62.7 fL and the Mono (72 h, time 3 day) was 2.4%. It also gave a Neu (72 h, time 3 day) of 23.8%, a PT (72 h, time 3 day) of 13.7 s and a Plat (72 h, time 3 day) of 128.2 x10_4/uL. It also gave an RBC (72 h, time 3 day) of 681.2 x10_4/ul, a Ret (72 h, time 3 day) of 6.8% and a WBC (72 h, time 3 day) of 91.3 x10_2/uL. It also gave a KIDNEY_L (72 h, time 3 day) of 1 g, a KIDNEY_R (72 h, time 3 day) of 1 g and a KIDNEY_TOTAL (72 h, time 3 day) of 1.9 g. For the same molecule, the LIVER (72 h, time 3 day) was 11.2 g, the A/G (72 h, time 3 day) was 0.9 and the ALP (72 h, time 3 day) was 1483.6 IU/L. It also gave an ALT (72 h, time 3 day) of 40.6 IU/L, an AST (72 h, time 3 day) of 67.8 IU/L and a BUN (72 h, time 3 day) of 15.2 mg/dL. It also gave a CRE (72 h, time 3 day) of 0.2 mg/dL, a Ca (72 h, time 3 day) of 11.1 mg/dL and a Cl (72 h, time 3 day) of 106.2 meq/L. The DBIL (72 h, time 3 day) was 0.01 mg/dL, the GLC (72 h, time 3 day) was 177 mg/dL and the IP (72 h, time 3 day) was 7.3 mg/dL. For the same molecule, the K (72 h, time 3 day) was 4.2 meq/L, the LDH (72 h, time 3 day) was 76 IU/L and the Na (72 h, time 3 day) was 142 meq/L. It also gave a PL (72 h, time 3 day) of 168.2 mg/dL, an RALB (72 h, time 3 day) of 2.7 g/dL and a TBIL (72 h, time 3 day) of 0.018 mg/dL. For the same molecule, the TC (72 h, time 3 day) was 88 mg/dL, the TG (72 h, time 3 day) was 121.8 mg/dL and the TP (72 h, time 3 day) was 5.6 g/dL. The gamma-GTP (72 h, time 3 day) was 1.2 IU/L, the TERMINAL_BW ([…], time 7 day) was 272.8 g and the TERMINAL_BW ([…], time 14 day) was 329.4 g. The TERMINAL_BW ([…], time 28 day) was 403.3 g, the APTT ([…], time 7 day) was 18.1 s and the Bas ([…], time 7 day) was 0%. The Eos ([…], time 7 day) was 1%, the Fbg ([…], time 7 day) was 300.2 mg/dL and the Hb ([…], time 7 day) was 14.2 g/dL. It also gave a Ht ([…], time 7 day) of 41.6%, a Lym ([…], time 7 day) of 79% and an MCH ([…], time 7 day) of 21.3 pg. The MCHC ([…], time 7 day) was 34.2%, the MCV ([…], time 7 day) was 62.3 fL and the Mono ([…], time 7 day) was 2%. For the same molecule, the Neu ([…], time 7 day) was 17.4%, the PT ([…], time 7 day) was 13.7 s and the Plat ([…], time 7 day) was 134 x10_4/uL. For the same molecule, the RBC ([…], time 7 day) was 667.8 x10_4/ul, the Ret ([…], time 7 day) was 5.8% and the WBC ([…], time 7 day) was 93.6 x10_2/uL. It also gave an APTT ([…], time 14 day) of 17.3 s, a Bas ([…], time 14 day) of 0% and an Eos ([…], time 14 day) of 1%. It also gave a Fbg ([…], time 14 day) of 321 mg/dL, a Hb ([…], time 14 day) of 15.5 g/dL and a Ht ([…], time 14 day) of 45.7%. The Lym ([…], time 14 day) was 77.2%, the MCH ([…], time 14 day) was 21.1 pg and the MCHC ([…], time 14 day) was 34%. For the same molecule, the MCV ([…], time 14 day) was 62.1 fL, the Mono ([…], time 14 day) was 2.2% and the Neu ([…], time 14 day) was 18.6%. For the same molecule, the PT ([…], time 14 day) was 13.8 s, the Plat ([…], time 14 day) was 123.9 x10_4/uL and the RBC ([…], time 14 day) was 737.2 x10_4/ul. It also gave a Ret ([…], time 14 day) of 4%, a WBC ([…], time 14 day) of 93.7 x10_2/uL and an APTT ([…], time 28 day) of 17.8 s. The Bas ([…], time 28 day) was 0%, the Eos ([…], time 28 day) was 1.4% and the Fbg ([…], time 28 day) was 292 mg/dL. It also gave a Hb ([…], time 28 day) of 15.4 g/dL, a Ht ([…], time 28 day) of 46.5% and a Lym ([…], time 28 day) of 79%. The MCH ([…], time 28 day) was 18.6 pg, the MCHC ([…], time 28 day) was 33.1% and the MCV ([…], time 28 day) was 56.4 fL. The Mono ([…], time 28 day) was 2%, the Neu ([…], time 28 day) was 17.4% and the PT ([…], time 28 day) was 12.8 s. For the same molecule, the Plat ([…], time 28 day) was 112.3 x10_4/uL, the RBC ([…], time 28 day) was 826.8 x10_4/ul and the Ret ([…], time 28 day) was 2.6%. It also gave a WBC ([…], time 28 day) of 97.8 x10_2/uL, a KIDNEY_L ([…], time 7 day) of 1.2 g and a KIDNEY_R ([…], time 7 day) of 1.2 g. It also gave a KIDNEY_TOTAL ([…], time 7 day) of 2.3 g, a KIDNEY_L ([…], time 14 day) of 1.3 g and a KIDNEY_R ([…], time 14 day) of 1.3 g. It also gave a KIDNEY_TOTAL ([…], time 14 day) of 2.5 g, a KIDNEY_L ([…], time 28 day) of 1.4 g and a KIDNEY_R ([…], time 28 day) of 1.4 g. For the same molecule, the KIDNEY_TOTAL ([…], time 28 day) was 2.8 g, the LIVER ([…], time 7 day) was 13.1 g and the LIVER ([…], time 14 day) was 14.3 g. For the same molecule, the LIVER ([…], time 28 day) was 16.6 g, the A/G ([…], time 7 day) was 0.9 and the ALP ([…], time 7 day) was 1462.4 IU/L. It also gave an ALT ([…], time 7 day) of 37.6 IU/L, an AST ([…], time 7 day) of 67.4 IU/L and a BUN ([…], time 7 day) of 17.6 mg/dL. It also gave a CRE ([…], time 7 day) of 0.2 mg/dL, a Ca ([…], time 7 day) of 11 mg/dL and a Cl ([…], time 7 day) of 104.2 meq/L. For the same molecule, the DBIL ([…], time 7 day) was 0.012 mg/dL, the GLC ([…], time 7 day) was 183.6 mg/dL and the IP ([…], time 7 day) was 6.4 mg/dL. It also gave a K ([…], time 7 day) of 4.2 meq/L, an LDH ([…], time 7 day) of 98 IU/L and a Na ([…], time 7 day) of 140.6 meq/L. The PL ([…], time 7 day) was 156.6 mg/dL, the RALB ([…], time 7 day) was 2.7 g/dL and the TBIL ([…], time 7 day) was 0.022 mg/dL. The TC ([…], time 7 day) was 78.8 mg/dL, the TG ([…], time 7 day) was 122.4 mg/dL and the TP ([…], time 7 day) was 5.8 g/dL. For the same molecule, the gamma-GTP ([…], time 7 day) was 1 IU/L, the A/G ([…], time 14 day) was 0.9 and the ALP ([…], time 14 day) was 1448 IU/L. For the same molecule, the ALT ([…], time 14 day) was 40 IU/L, the AST ([…], time 14 day) was 65.6 IU/L and the BUN ([…], time 14 day) was 16.4 mg/dL. The CRE ([…], time 14 day) was 0.2 mg/dL, the Ca ([…], time 14 day) was 11 mg/dL and the Cl ([…], time 14 day) was 105.4 meq/L. It also gave a DBIL ([…], time 14 day) of 0.01 mg/dL, a GLC ([…], time 14 day) of 177.2 mg/dL and an IP ([…], time 14 day) of 6.2 mg/dL. For the same molecule, the K ([…], time 14 day) was 3.6 meq/L, the LDH ([…], time 14 day) was 62.4 IU/L and the Na ([…], time 14 day) was 143 meq/L. For the same molecule, the PL ([…], time 14 day) was 163 mg/dL, the RALB ([…], time 14 day) was 2.8 g/dL and the TBIL ([…], time 14 day) was 0.044 mg/dL. For the same molecule, the TC ([…], time 14 day) was 74.6 mg/dL, the TG ([…], time 14 day) was 153.8 mg/dL and the TP ([…], time 14 day) was 6 g/dL. For the same molecule, the gamma-GTP ([…], time 14 day) was 1 IU/L, the A/G ([…], time 28 day) was 0.8 and the ALP ([…], time 28 day) was 1234.6 IU/L. For the same molecule, the ALT ([…], time 28 day) was 34.4 IU/L, the AST ([…], time 28 day) was 63.8 IU/L and the BUN ([…], time 28 day) was 17.4 mg/dL. The CRE ([…], time 28 day) was 0.3 mg/dL, the Ca ([…], time 28 day) was 10.6 mg/dL and the Cl ([…], time 28 day) was 103.8 meq/L. For the same molecule, the DBIL ([…], time 28 day) was 0.014 mg/dL, the GLC ([…], time 28 day) was 187 mg/dL and the IP ([…], time 28 day) was 6.4 mg/dL. It also gave a K ([…], time 28 day) of 3.6 meq/L, an LDH ([…], time 28 day) of 72.8 IU/L and a Na ([…], time 28 day) of 142.8 meq/L. For the same molecule, the PL ([…], time 28 day) was 164.8 mg/dL, the RALB ([…], time 28 day) was 2.8 g/dL and the TBIL ([…], time 28 day) was 0.08 mg/dL. The TC ([…], time 28 day) was 77.8 mg/dL, the TG ([…], time 28 day) was 195 mg/dL and the TP ([…], time 28 day) was 6.4 g/dL. The gamma-GTP ([…], time 28 day) was 1 IU/L.
